{"source": "patent US20260097052A1", "about": "“NOVEL ORAL CANNABINOID FORMULATIONS” (Esolate Pharmaceuticals Ltd, priority 2023, published 2026)", "origin": "cited, not measured here", "settings": "humans"}
{"smiles": "C=C(C)[C@@H]1CCC(C)=C[C@H]1c1c(O)cc(CCCCC)cc1O", "note": "[CBD, cannabidiol]", "values": [{"measurement": "Oral bioavailability", "result": "approximately 6%"}]}
